Data on 16 compounds can be found in US20060241114A1, “Derivatives of azasugars as anticancer agents” (priority 2003, published 2006).

Molecules are shown by their SMILES.

The test system of assay [1] is DU145 (prostate carcinoma). Kind of assay: In vitro growth inhibition screen (sulphorhodamine B), DU145. It is filed as cell-based, human. As to conditions: DU145 cells, incubated for 48 hours, sulphorhodamine B dye; read-out: GI50 (concentration which inhibits the cell growth by 50%), DU145 Prostate carcinoma. The procedure: (§1) Each agent was tested over a broad concentration range (ten-fold dilutions starting from ≧100 μM to 10 nM) against 6 human cancer cell lines which was comprised of different tumor types. These are DU145 (prostate carcinoma), HT29 (colorectal adenocarcinoma), LOX (melanoma), MCF7 (breast adenocarcinoma), MCF7ADR (adriamycin resistant breast adenocarcinoma), and U251 (human glioblastoma). A standard compound doxorubicin was tested in each assay as a positive control. The cells were maintained in growing condition in RPMI 1640 medium containing 10% fetal calf serum and incubated at 37° C. under 5% CO2 atmosphere. All cell lines were inoculated onto a series of standard 96-well microtitre plate on day zero, followed by twenty four-hour incubation in the absence of test compound. The inoculation densities in the screen were as per Monk et al., (1991) J. Natl. Cancer Inst., 83, 757-766. All NCEs were dissolved in DMSO and diluted further in culture medium. An aliquot of each dilution was added to the growing cells in 96 well plates and incubated for 48 hours. After incubation, the assay was terminated by adding 50 μL of trichloroacetic acid (TCA) and incubating at 4° C. for 30 min. The precipitated cells were washed and stained with sulphorhodamine B dye for 30 min and the excess dye was washed off with acetic acid. Adsorbed dye was solubilised in Tris base (alkaline pH) and quantitated by measuring the OD at […] in ELISA READER. GI50 (concentration which inhibits the cell growth by 50%) was calculated according to Boyd and Paull, (1995) Drug Dev. Res., 34, 91-109.
For orientation: The SRB assay estimates cell density from bound dye.

The test system of another assay is LOX (melanoma). Briefly: In vitro growth inhibition screen (sulphorhodamine B), LOX. It is filed as cell-based, human. Particulars: LOX cells, incubated for 48 hours, sulphorhodamine B dye; read-out: GI50 (concentration which inhibits the cell growth by 50%), LOX Melanoma. The procedure:
as §1

The subject of assay [2] is MCF7ADR (adriamycin resistant breast adenocarcinoma). Kind of assay: In vitro growth inhibition screen (sulphorhodamine B), MCF7ADR. It is filed as cell-based, human. Particulars: MCF7ADR cells, incubated for 48 hours, sulphorhodamine B dye; read-out: GI50 (concentration which inhibits the cell growth by 50%), MCF7ADR Adriamycin Resistant Breast adenocarcinoma. The procedure: as §1

Assay [3] relates to U251 (human glioblastoma). Briefly: In vitro growth inhibition screen (sulphorhodamine B), U251. It is filed as cell-based. Particulars: U251 cells, incubated for 48 hours, sulphorhodamine B dye; read-out: GI50 (concentration which inhibits the cell growth by 50%), U251 Human glioblastoma astrocytoma. The procedure: as §1
Assay [4] concerns HT29 (colorectal adenocarcinoma). Briefly: In vitro growth inhibition screen (sulphorhodamine B), HT29. It is filed as cell-based, human. Particulars: HT29 cells, incubated for 48 hours, sulphorhodamine B dye; read-out: GI50 (concentration which inhibits the cell growth by 50%), HT29 Colorectal adenocarcinoma. As to the method: as §1
Assay [5] concerns MCF7 (breast adenocarcinoma). Kind of assay: In vitro growth inhibition screen (sulphorhodamine B), MCF7. Particulars: MCF7 cells, incubated for 48 hours, sulphorhodamine B dye; read-out: GI50 (concentration which inhibits the cell growth by 50%), MCF7 Breast adenocarcinoma. It is filed as cell-based, human. As to the method: as §1

For `CCCN1C(=O)[C@H](OCc2ccccc2)[C@@H](OCc2ccccc2)[C@H](OCc2ccccc2)[C@H]1CNC(=O)Nc1cccc(C(C)=O)c1` [Compound No. 14, 2,3,4-Tri-O-benzyl-6-N-{[3-acetylphenyl]aminocarbonylamino}-N-propyl-D-gluco-δ-lactam], the GI50 amounted to 21 µM in assay [1]; 7.6 µM with LOX (melanoma); 6.7 µM in assay [2]; 15 µM in assay [3]; 30.4 µM in assay [4]; 35.7 µM in assay [5].
Take `CCCN1C(=O)C(OCc2ccccc2)C(OCc2ccccc2)C(OCc2ccccc2)C1CNC(=O)Nc1cc(Cl)ccc1OC` [Compound No. 15, 2,3,4-Tri-O-benzyl-6-N-{[3-chloro-6-methoxyphenyl]aminocarbonylamino}-N-propyl-D-gluco-δ-lactam]: the GI50 in assay [1] came to 44.4 µM; in the assay on LOX (melanoma) it was 57.2 µM; in assay [2], 53.8 µM; in assay [3], 40.8 µM; in assay [4], 41.9 µM; in assay [5] it was 29.9 µM.
As for `CCCN1C(=O)[C@H](OCc2ccccc2)[C@@H](OCc2ccccc2)[C@H](OCc2ccccc2)[C@H]1CNC(=O)Nc1ccc(F)cc1F` [Compound No. 16, 2,3,4-Tri-O-benzyl-6-N-{[2,4-difluorophenyl]aminocarbonylamino}-N-propyl-D-gluco-δ-lactam], the GI50 in assay [1] was 59.7 µM; in the assay on LOX (melanoma), 53.3 µM; in assay [2] it was 74.1 µM; in assay [3], 22.9 µM; in assay [4], 58.2 µM; in assay [5], 55.6 µM.
Turning to `CCCN1C(=O)[C@H](OCc2ccccc2)[C@@H](OCc2ccccc2)[C@H](OCc2ccccc2)[C@H]1CNC(=O)Nc1c(Cl)cc(Cl)cc1Cl` [Compound No. 17, 2,3,4-Tri-O-benzyl-6-N-{[2,4,6-trichlorophenyl]aminocarbonylamino}-N-propyl-D-gluco-δ-lactam], the GI50 in assay [1] is 82.2 µM; with LOX (melanoma), 170 µM; in assay [2] it was 348 µM; in assay [3], 206 µM; in assay [4], 213 µM; in assay [5] it was greater than 528 µM.
As for `CCCN1C(=O)[C@H](OCc2ccccc2)[C@@H](OCc2ccccc2)[C@H](OCc2ccccc2)[C@H]1CNC(=O)Nc1ccc(Cl)c(Cl)c1` [Compound No. 18, 2,3,4-Tri-O-benzyl-6-N-{[3,4-dichlorophenyl]aminocarbonylamino}-N-propyl-D-gluco-δ-lactam], the GI50 in assay [1] was 2.5 µM; in the assay with LOX (melanoma), 2 µM; in assay [2] it was 2.9 µM; in assay [3], 2.6 µM; in assay [4] it was 2.2 µM; in assay [5], 2 µM.
As to `CCCN1C(=O)C(OCc2ccccc2)C(OCc2ccccc2)C(OCc2ccccc2)C1CNC(=O)Nc1ccc(Cl)cc1Cl` [Compound No. 19, 2,3,4-Tri-O-benzyl-6-N-{[2,4-dichlorophenyl]aminocarbonylamino}-N-propyl-D-gluco-δ-lactam], the GI50 was greater than 592 µM in assay [1]; 81.8 µM with LOX (melanoma); greater than 592 µM in assay [2]; greater than 592 µM in assay [3]; greater than 592 µM in assay [4]; greater than 592 µM in assay [5].
As for `CCCN1C(=O)C(OCc2ccccc2)C(OCc2ccccc2)C(OCc2ccccc2)C1CNC(=O)NC(C)C` [Compound No. 20, 2,3,4-Tri-O-benzyl-6-N-{[isopropyl]aminocarbonylamino}-N-propyl-D-gluco-δ-lactam], the GI50 in assay [1] was 15.3 µM; with LOX (melanoma), 5.9 µM; in assay [2], 5.5 µM; in assay [3] it was 3.3 µM; in assay [4], 2.6 µM; in assay [5] it was 4.1 µM.
For `CCCN1C(=O)[C@H](OCc2ccccc2)[C@@H](OCc2ccccc2)[C@H](OCc2ccccc2)[C@H]1CNC(=S)Nc1ccc(Cl)cc1` [Compound No. 21, 2,3,4-Tri-O-benzyl-6-N-{[4-chlorophenyl]aminothiocarbonylamino}-N-propyl-D-gluco-δ-lactam], the GI50 in assay [1] is 6.5 µM; in the assay on LOX (melanoma) it was 2.9 µM; in assay [2], 3.4 µM; in assay [3] it was 3.6 µM; in assay [4] it was 2 µM; in assay [5], 2.4 µM.
`CCCN1C(=O)[C@H](OCc2ccccc2)[C@@H](OCc2ccccc2)[C@H](OCc2ccccc2)[C@H]1CNC(=O)Nc1ccc(C(F)(F)F)cc1` [Compound No. 22, 2,3,4-Tri-O-benzyl-6-N-{[4-trifluoromethylphenyl]aminocarbonylamino}-N-propyl-D-gluco-δ-lactam]: the GI50 came out at 5.1 µM in assay [1]; 4.3 µM in the assay with LOX (melanoma); 8.2 µM in assay [2]; 5.1 µM in assay [3]; 11.9 µM in assay [4]; 39.8 µM in assay [5].
Take `CCCN1C(=O)[C@H](OCc2ccccc2)[C@@H](OCc2ccccc2)[C@H](OCc2ccccc2)[C@H]1CNC(=O)NC12CC3CC(CC(C3)C1)C2` [Compound No. 23, 2,3,4-Tri-O-benzyl-6-N-{[1-adamantyl]aminocarbonylamino}-N-propyl-D-gluco-δ-lactam]: the GI50 in assay [1] is 50 µM; with LOX (melanoma) it was 35.7 µM; in assay [2], 26 µM; in assay [3] it was 4.2 µM; in assay [4], 28.7 µM; in assay [5], 5.6 µM.
As to `CCCN1C(=O)[C@H](O)[C@@H](O)[C@H](O)[C@H]1CNC(=O)Nc1ccccc1` [Compound No. 24, N-Propyl-6-N-{[phenyl]aminocarbonylamino}-D-gluco-δ-lactam], the GI50 in assay [1] was found to be 296 µM; with LOX (melanoma), 169 µM; in assay [2] it was 262 µM; in assay [3], 231 µM; in assay [4] it was 213 µM; in assay [5], 157 µM.
For the compound `CCCN1C(=O)[C@H](O)[C@@H](O)[C@H](O)[C@H]1CNC(=O)Nc1ccccc1C(F)(F)F` [Compound No. 25, 6-N-{[2-Trifluoromethylphenyl]aminocarbonylamino}-N-propyl-D-gluco-δ-lactam], the GI50 amounted to 386 µM in assay [1]; 94.6 µM in the assay on LOX (melanoma); 228 µM in assay [2]; 278 µM in assay [3]; 311 µM in assay [4]; 190 µM in assay [5].
For `CCCN1C(=O)[C@H](O)[C@@H](O)[C@H](O)[C@H]1CNC(=O)Nc1ccc(C)cc1` [Compound No. 26, 6-N-{[p-Tolyl]aminocarbonylamino}-N-propyl-D-gluco-δ-lactam], the GI50 in assay [1] was found to be 278 µM; with LOX (melanoma), 116 µM; in assay [2] it was 235 µM; in assay [3] it was 520 µM; in assay [4], 209 µM; in assay [5], 136 µM.
As to `CCCN1C(=O)[C@H](O)[C@@H](O)[C@H](O)[C@H]1CNC(=O)Nc1ccc(OC)cc1` [Compound No. 27, 6-N-{[p-Methoxyphenyl]aminocarbonylamino}-N-propyl-D-gluco-δ-lactam], the GI50 turned out to be 413 µM in assay [1]; 193 µM in the assay with LOX (melanoma); 481 µM in assay [2]; 323 µM in assay [3]; 232 µM in assay [4]; 214 µM in assay [5].
Take `CCCN1C(=O)[C@H](O)[C@@H](O)[C@H](O)[C@H]1CNC(=O)Nc1ccc(N)cc1` [Compound No. 28, 6-N-{[p-Aminophenyl]aminocarbonylamino}-N-propyl-D-gluco-δ-lactam]: the GI50 in assay [1] was determined as 288 µM; in the assay with LOX (melanoma) it was 136 µM; in assay [2], 194 µM; in assay [3] it was 557 µM; in assay [4] it was 242 µM; in assay [5], 106 µM.
On to `CCCN1C(=O)[C@H](O)[C@@H](O)[C@H](O)[C@H]1CNC(=O)Nc1ccc(F)cc1` [Compound No. 29, 6-N-{[4-Fluorophenyl]aminocarbonylamino}-N-propyl-D-gluco-δ-lactam], for which the GI50 in assay [1] worked out at 280 µM; in the assay on LOX (melanoma) it was 290 µM; in assay [2] it was 165 µM; in assay [3] it was 87 µM; in assay [4], 58.6 µM; in assay [5], 85.8 µM.
